Measurements: patent publication US12202866B2, “Therapeutic nanoconjugates and uses thereof” (UNIVERSITAT AUTÒNOMA DE BARCELONA (UAB), priority 2017, dated 2025)
Marks after values point to notes of the source that are not given here.

Assays:
[1] = tested on: CXCR4^+ HeLa human cervical carcinoma cell line; assay: Internalization in CXCR4+ HeLa cells (flow cytometry, AMD3100 competition); format: cell-based; conditions: 1 hour exposure, 1 μM
Procedure: To assess specificity for CXCR4 receptor mediated internalization, competition studies incubating CXCR4^+ HeLa cells with the CXCR4 antagonist AMD3100 (octahydrochloride hydrate, Sigma-Aldrich) were performed in a 1:10 (Protein:antagonist) molar ratio for 1 h before exposure to the nanoconjugate, as previously described for the T22-GFP-H6.
Nuclei were labeled with Hoechst 33342 (Life Technologies) and plasma membranes CellMask™ Deep Red (Life Technologies).

[2] = tested on: CXCR4^+ cancer cells in SC SW1417 CRC tumor; assay: CXCR4+ cancer cell fraction in tumor tissue along time after single dose (anti-CXCR4 IHC); format: in vivo, mouse
Procedure: The SC SW1417 mouse model was used to determine the capacity of the nanoconjugate to induce DNA damage and apoptosis in tumor tissue, as well as the kinetics of CXCR4 expression in the membrane of tumor cells after treatment, regarding the fraction of CXCR4 expressing tumor cells and their intensity, since CXCR4^+ are the target cells for the nanoconjugate. […] The mice had been treated with equimolecular dosages of T22-GFP-H6, free oligo-FdU or Buffer, in which also were determined the levels of CXCR4 expression in tumor tissue at the different time points.

[3] = tested on: CXCR4^+ SW1417 CRC metastases; assay: Prevention of metastasis protocol, SC+ORT CXCR4+ SW1417 CRC model; format: in vivo, NOD/SCID mice
Procedure: Thus, a SC+ORT model, was produced: when SC tumors reached a volume of 700 mm3, mice were sacrificed by cervical dislocation and tumours were excised, discarding the necrotic areas. Three hundred mg of viable tumour tissue was then cut into pieces and disaggregated in a mix of 0.05% trypsin (Invitrogen) and 100 mg/ml DNase (Sigma-Aldrich). The mix was pipetted 30 times, using a 10 ml pipette, and incubated for 10 minutes at 37° C. with shaking. It was then re-pipetted 30 times, using 10 ml, 3 ml and 1 ml pipettes, and re-incubated for 5 minutes at 37° C. with shaking. This re-pipetting step was then repeated. The obtained SW1417 single-cell suspension was filtered through a cell strainer and centrifuged at 1,000 g for 10 minutes before counting the cells. Then 2×10^6 cells, […] resuspended in 50 μl of media, were microinjected in the cecum of each mouse, following the method described above.
The SC+ORT metastatic CRC model developed in NOD/SCID mice was used to evaluate the capacity of the nanoconjugate for metastasis prevention.
(§1) At necropsy, the number and size of visible metastases in the organs where dissemination is expected in colorectal cancer (lymph nodes, liver, lung and peritoneum) were recorded for each mouse in all compared groups. Also the number of metastatic foci that emitted bioluminiscence (derived from the SW1417-luci CRC cells) were counted ex vivo in the target organs for metastasis, using the IVIS® 200-Spectrum (Perkin-Elmer). Samples for histopathological and immunohistochemical analyses were collected and processed. Two independent observers analyzed H&E stained samples to count the number and measure the size of all observed metastatic foci in three (metastasis prevention experiment) or six (regression of metastasis experiment) sections of each organ in each mouse. The images were taken and the measurements were performed with an Olympus microscope with the CellD Olympus software (v3.3). […] The obtained results were used to study a possible correlation between CXCR4^+ CCF and antimetastatic effect at the different sites.
(§2) In order to analyze differences between control and experimental groups of affected mice in metastatic rates at the different organs, Fisher's exact test was used. The Mann-Whitney test was used to compare number and size of metastatic foci in the affected organs among groups. All quantitative values were expressed as mean±SE and the statistical tests were performed using SPSS version 11.0 (IBM, New York, USA). Differences among groups was considered significant at a p<0.05.

[4] = tested on: CXCR4^+ SW1417 CRC metastases; assay: Regression of established metastasis protocol, orthotopic CXCR4+ SW1417 CRC model; format: in vivo, Swiss nude mice
Procedure: Swiss nude mice were anesthetized with ketamine and xylazine, exteriorizing their cecum by a laparotomy. 2×106 CXCR4^+ SW1417-luci CRC cells (expressing luciferase, to allow ex vivo bioluminescent identification of metastatic foci in affected organs at the end of therapy) were suspended in […] of modified Eagle's medium, and loaded into a sterile micropipette. The cell suspension was slowly injected, under a binocular lens, with an approximate 30° angle and its tip introduced 5 mm into the cecal wall. Afterward, a slight pressure was applied with a cotton stick at approximately 2 mm from the injection point in the direction of the pipette axis. The pipette was pulled out and the area around the injection cleaned with 3% iodine. After injection, the gut was returned to the abdominal cavity and closed with surgical staples.
The orthotopic and metastatic CRC model developed in Swiss nude mice was employed to perform experiments of metastasis regression. […] The experiment was finished when the first animal of the buffer-treated-group had to be euthanized. See below the studied parameters to evaluate the antimetastatic effect.
as §1, §2

[5] = Prevention protocol, 3 histology sections, mean + SE
[6] = versus free oligo-FdU mice, histology, end of experiment

In the case of “T22-GFP-H6-FdU: nanoconjugate of T22-GFP-H6 protein nanoparticle covalently bound via maleimide linker to thiol-functionalized pentameric floxuridine oligonucleotide (oligo-FdU)”, the “internalization in HeLa cells” value [1] is reported as “CXCR4-dependent nanoconjugate internalization”, the “CXCR4^+ CCF remaining in tumor tissue” value ([2]; 24 h after single dose) is reported as “reduced” and the “CXCR4^+ CCF remaining in tumor tissue” value ([2]; 48 h after single dose) is reported as “undetectable”. The “LN foci, mean foci number per mouse” value ([3]; Prevention protocol, 20 μg (or equimolecular) q3d x12 i.v., 3 histology sections, mean + SE) was 2.0 ± 0.4 ^a, the “Liver foci, mean foci number per mouse” value [3, 5] was 0.2 ± 0.1 ^b,c and the “Lung foci, mean foci number per mouse” value [3, 5] was 1.3 ± 0.9 ^d,e. The “Peritoneal foci, mean foci number per mouse” value [3, 5] was 0.4 ± 0.3 ^f,g, the “reduction in the size of peritoneal foci” value ([3]; compared to free oligo-FdU) was 2.4 fold and the “Metastasis Liver [%]” value ([3]; end of prevention experiment) was “[17]^a %”. For the same substance, the “Metastasis Liver, affected/total mice” value ([3]; end of prevention experiment) was 2/12, the “Metastasis Lung [%]” value ([3]; end of prevention experiment) was “[17]^b,c %” and the “Metastasis Lung, affected/total mice” value ([3]; end of prevention experiment) was 2/12. For the same substance, the “Metastasis Lymph nodes [%]” value ([3]; end of prevention experiment) was “[75] %”, the “Metastasis Lymph nodes, affected/total mice” value ([3]; end of prevention experiment) was 9/12 and the “Metastasis Peritoneal [%]” value ([3]; end of prevention experiment) was “[17]^d %”. For the same substance, the “Metastasis Peritoneal, affected/total mice” value ([3]; end of prevention experiment) was 2/12, the “metastasis development in liver and lung by ex vivo luminescence” value ([3]; end of prevention experiment) was “blocked metastasis development” and the “remaining CXCR4^+ CCF in liver, lung and peritoneal metastatic tissue (anti-CXCR4 IHC)” value ([3]; end of prevention experiment) was “higher reduction”. For the same substance, the “prevention of LN metastases” value ([3]; histology, end of experiment) was “did not prevent”, the “Metastasis Size, Liver” value ([3]; mean foci size) was 8.7 μm^2 × 10^−3 and the “Metastasis Size, Lung” value ([3]; mean foci size) was 15.1 μm^2 × 10^−3. For the same substance, the “Metastasis Size, Lymph nodes” value ([3]; mean foci size) was 79.3 μm^2 × 10^−3, the “Metastasis Size, Peritoneal” value ([3]; mean foci size) was 126.6 μm^2 × 10^−3 and the “Primary tumor Positive/#Mice” value ([3]; mice bearing a primary tumor out of total mice per group) was 12/12. For the same substance, the “Primary tumor [%]” value ([3]; percent of mice bearing a primary tumor) was “[100] %”, the “primary tumor growth by in vivo bioluminescence emission” value ([3]; prevention experiment, compared to buffer-treated mice) was “no significant inhibition” and the “reduction in the total number of metastases in liver or lung” value [3, 6] was 3.1-3.7 times. For the same substance, the “reduction in the total number of metastases in the peritoneum” value [3, 6] was 10.3 fold, the “LN foci, mean foci number per mouse” value ([4]; Regression protocol, 20 μg (or equimolecular) q3d x10 i.v., 6 histology sections, mean + SE) was 0.4 ± 0.1 ^h,i and the “Lung foci, mean foci number per mouse” value ([4]; Regression protocol, 6 histology sections, mean + SE) was 0.7 ± 0.4 ^k,l,m. For the same substance, the “regression of established lung metastasis” value ([4]; compared to free oligo-FdU) was “more potent than free oligo-FdU” and the “primary tumor growth by in vivo bioluminescence emission” value ([4]; regression experiment, compared to buffer treated animals) was “significantly inhibited tumor growth”.
